# Test results: PubChem BioAssay AID1963844 (Molecular Pharmacology Branch, DTP, NCI, 2024)
# Test system: 422866-222-R5-J1-PDC complex spheroid viability
# Assay: Anticancer human tumor 422866-222-R5-J1-PDC patient-derived pancreatic adenocarcinoma cell line growth inhibition [POLQ]
# Conditions: for IC50: curve of first compound; for viability, T/C: stronger effect = lower value
# Outline: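 Patient-derived tumour cells were co-cultured with HUVEC and mesenchymal stem cells as multicellular spheroids at 37 °C. They were treated with POLQ inhibitors (novobiocin, ART-558, RP6685) alone or combined with other agents. Top concentrations were at or near clinical Cmax (otherwise 10 microM; SN-38 at 1 microM), decreasing in half-log steps.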
# 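Further: spheroids exposed to compounds for one week before readout.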
# 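Wherever viability, T/C is given: percent of DMSO vehicle wells luminescence so 100% = untreated viability.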
smiles,measurement,setting,value
C#Cc1c(F)ccc2cc(O)cc(-c3ncc4c(N5CC6CCC(C5)N6)nc(OCC56CCCN5CC(F)C6)nc4c3F)c12 (configuration not stated) + COC1C(OC(N)=O)C(O)C(Oc2ccc3c(O)c(NC(=O)c4ccc(O)c(CC=C(C)C)c4)c(=O)oc3c2C)OC1(C)C,IC50,second compound 0.0316 µM,715 nM
same,IC50,second compound 0.1 µM,780 nM
same,IC50,second compound 0.316 µM,750 nM
same,IC50,second compound 1 µM,859 nM
same,IC50,second compound 3.16 µM,664 nM
same,IC50,second compound 10 µM,810 nM
same,"viability, T/C","second compound 0.0316 µM, first compound 0.0316 µM",95.7%
same,"viability, T/C","second compound 0.0316 µM, first compound 0.1 µM",78.9%
same,"viability, T/C","second compound 0.0316 µM, first compound 0.316 µM",59.6%
same,"viability, T/C","second compound 0.0316 µM, first compound 1 µM",46.2%
same,"viability, T/C","second compound 0.0316 µM, first compound 3.16 µM",35.9%
same,"viability, T/C","second compound 0.0316 µM, first compound 10 µM",29.8%
same,"viability, T/C","second compound 0.1 µM, first compound 0.0316 µM",92.5%
same,"viability, T/C","second compound 0.1 µM, first compound 0.1 µM",86.3%
same,"viability, T/C","second compound 0.1 µM, first compound 0.316 µM",66.5%
same,"viability, T/C","second compound 0.1 µM, first compound 1 µM",46.1%
same,"viability, T/C","second compound 0.1 µM, first compound 3.16 µM",34.2%
same,"viability, T/C","second compound 0.1 µM, first compound 10 µM",32.8%
same,"viability, T/C","second compound 0.316 µM, first compound 0.0316 µM",99.5%
same,"viability, T/C","second compound 0.316 µM, first compound 0.1 µM",85.8%
same,"viability, T/C","second compound 0.316 µM, first compound 0.316 µM",66.2%
same,"viability, T/C","second compound 0.316 µM, first compound 1 µM",45.2%
same,"viability, T/C","second compound 0.316 µM, first compound 3.16 µM",31.4%
same,"viability, T/C","second compound 0.316 µM, first compound 10 µM",28.8%
same,"viability, T/C","second compound 1 µM, first compound 0.0316 µM",106%
same,"viability, T/C","second compound 1 µM, first compound 0.1 µM",102%
same,"viability, T/C","second compound 1 µM, first compound 0.316 µM",73.4%
same,"viability, T/C","second compound 1 µM, first compound 1 µM",46.9%
same,"viability, T/C","second compound 1 µM, first compound 3.16 µM",37%
same,"viability, T/C","second compound 1 µM, first compound 10 µM",32%
same,"viability, T/C","second compound 3.16 µM, first compound 0.0316 µM",93.3%
same,"viability, T/C","second compound 3.16 µM, first compound 0.1 µM",93.9%
same,"viability, T/C","second compound 3.16 µM, first compound 0.316 µM",67.1%
same,"viability, T/C","second compound 3.16 µM, first compound 1 µM",40.9%
same,"viability, T/C","second compound 3.16 µM, first compound 3.16 µM",36.9%
same,"viability, T/C","second compound 3.16 µM, first compound 10 µM",30.3%
same,"viability, T/C","second compound 10 µM, first compound 0.0316 µM",96.1%
same,"viability, T/C","second compound 10 µM, first compound 0.1 µM",86.1%
same,"viability, T/C","second compound 10 µM, first compound 0.316 µM",64.7%
same,"viability, T/C","second compound 10 µM, first compound 1 µM",47.6%
same,"viability, T/C","second compound 10 µM, first compound 3.16 µM",33.7%
same,"viability, T/C","second compound 10 µM, first compound 10 µM",29.4%
